Tests used:
adult mongrel dogs = test: Cardiotonic activity in anesthetized dogs (myocardial contractile force, i.v.); type: in vivo; details: Canis lupus familiaris, iv, vs pretreatment control, read-out: CF: Percent increase in cardiac force
Protocol: The cardiotonic activity of the compounds was determined in accordance with the method of Alousi, A. A., et al., J. Cir. Res. 45, 666 (1979). Basically, adult mongrel dogs were anesthetized with sodium pentobarbital and artificially respired. Arterial pressure was recorded via a femoral artery and the pressure pulse used to trigger a cardiotachometer for heart rate. Left ventricular pressure was measured with a Millar catheter and dP/dt was derived. Cardiac output was determined by measuring ascending aortic blood flow with an electromagnetic flow probe and myocardial contractile force was measured with a Walton Brodie strain gauge sutured to the right ventricle. Lead II EKG was also recorded. A standard does of dopamine was administered to assess myocardial responsiveness. Test compounds were administered by i.v. infusion or bolus administration and the effects on cardiovascular parameters were determined. Dose-related effects of the test compound on BP, HR, dP/dt max., C.F. and C.O. were compared to pretreatment control values and expressed as a percentage change.

[1] = biological target: cyclic nucleotide phosphodiesterase; test: Phosphodiesterase inhibitory activity (cyclic AMP hydrolysis); type: biochemical; details: read-out: IC50 (50% inhibition of cyclic nucleotide phosphodiesterase activity); cyclic AMP 0.10-1.0 μM, pH 7.4

Row | IC50 [1] [µM] | SMILES | change in vivo at 0.47 mg/kg (adult mongrel dogs; i.v. dose 0.47 mpk) [%] | change in vivo at 0.075 mg/kg (adult mongrel dogs; i.v. dose 0.075 mpk) [%] | change in vivo at 1.87 mg/kg (adult mongrel dogs; i.v. dose 1.87 mpk) [%]
1 | 24 | CC1CC(=O)NN=C1c1ccc2c(c1)N(C(C)C)C(=O)C(C)O2 (stereo not drawn) [Example 36, 6-(3,4-Dihydro-2-methyl-4-(1-methylethyl)-3-oxo-1,4(2H)-benzoxazin-6-yl)-2,3,4,5-tetrahydro-5-methylpyridazin-3-one] | 40 |  | 
2 | 25 | O=C1CCC(c2ccc3c(c2)NC(=O)CS3)=NN1 [Example 53, 6-(3,4-Dihydro-3-oxo-1,4[2H]-benzothiazin-6-yl)-2,3,4,5-tetrahydropyridazin-3-one] |  | 21 | 
3 | 30 | CC(=O)N1CCOc2ccc(C3=NNC(=O)CC3C)cc21 (racemic) [Example 16, 6-(4-Acetyl-3,4-dihydro-1,4(2H)-benzoxazin-6-yl)-2,3,4,5-tetrahydro-5-methylpyridazin-3-one] |  |  | 173

Source: patent publication US5081242A, “6-benzoxazinyl- and 6-benzothiazinyl 2,3,4,5-tetrahydropyridazin-3-ones” (Ortho Pharmaceutical Corporation, priority 1991, dated 1992)
